According to US20060037085A1, “Animal model for fetal alcohol syndrome and methods of treatment” (priority 2004, published 2006):
Read-outs that look alike come from different tables or passages of the source. Marks after values point to notes of the source that are not given here.

Assays:
[1] = test system: Pax6, Otx2, Sox2, Sox3, NCAM, Vent1; assay: RT-PCR of neural markers (animal caps or embryos); assay type: cell-based, Xenopus laevis
Excerpt: RT-PCR Animal caps were dissected from embryos at stage 8.5 and cultured in 67% Leibovitz's L-15 medium, pH 7.5 in the presence or absence of varied concentration of alcohol until stage 22. Total RNA was extracted from cultured animal caps with Trizol reagent (Invitrogen). Primer sets and PCR conditions for NCAM and Pax6 have been described in our previous reports (Peng, Neurobiol. Dis., 2004; Peng, J. Mol. Biol., 2004). PCR products were subject to electrophoresis on TBE gel and visualized by ethidium bromide staining.
Animal cap explant assay. […] Total RNA was extracted from animal caps or whole embryos using TRIZOL reagent (Invitrogen). The total RNA was reverse transcribed using the Superscript system (Invitrogen), and the first strand cDNA of the target gene amplified by PCR.
The Xenopus animal cap is composed of pluripotent cells that can be induced to form neural, mesodermal, or epidermal tissue, and is a useful tissue to assess the activity of various factors on neural development. Animal caps were treated with varied concentrations of alcohol as indicated.

[2] = test system: Xenopus laevis tadpole brain; assay: Histological analysis of brain injury (coronal brain sections of tadpoles)
Excerpt: Histological analysis of brain injury. Embryos were fixed in 2% paraformaldehyde, dehydrated, embedded in paraffin. The embryos were sectioned coronally through the head and stained with hematoxylin and eosin.
The EF-1α transcript was detected as an internal control for equal RNA load.

[3] = test system: alcohol-induced ROS production; assay: ROS measurement (hydrogen peroxide level in embryos); assay type: in vivo, Xenopus laevis; details: vitamin C pretreatment 2 hours before 0.6% ethanol
Experimental: (A) Embryos were pretreated with or without vitamin C two hours before alcohol treatment (0.6%, 12 h, from stage 13 to 22). The embryos were harvested at stage 22 and the hydrogen peroxide level measured by the colorimetric quantitation of hydrogen peroxide method (total hydroperoxides), according to the protocols provided by the manufacturer (BIOXYTECH H202-560 kit, OXIS International, Inc., USA); (B) The NF-κB mediated transcriptional activity was measured using NF-κB luciferase reporter plasmid (pLuc-NF-κB) containing IL-6 promoter region with four repeats of NF-κB binding sites.
ROS measurement. […] At the end of the experiment, embryos were harvested and total ROS content was determined by the calorimetric quantitation of hydrogen peroxide method (total hydroperoxides), following protocols provided by the manufacturer (BIOXYTECH H202-560 kit, OXIS International, Inc. USA).

Xenopus laevis embryos = details: for Alive / dead: 15 embryos; for Body length / Eye distance: mean ± SD
Experimental: Morphological measurements of microcephaly and growth retardation.
Vitamin C treatment. Embryos at stage 13 (initial neural plate stage) were collected and divided into groups, each containing 15-20 embryos and incubated in a plastic petri dish containing MMR medium as stated above. Vitamin C, having a concentration of 100 μM, was added either concomitantly, 2 hours before, or 2 hours after the initiation of a 12-hour alcohol exposure. The tadpoles were fixed and measurements were made as stated above.

rats = details: pregnant rats treated with folic acid concomitantly to ethanol administration; cited from earlier work
[4] = test system: embryonic hippocampal cultures; details: against 400-2400 mg/dl of ethanol treatment; cited from earlier work
[5] = 100 μM VitC 2 hours after start of 12-hour 0.6% EtOH (Post-VitC)
[6] = 100 μM VitC 2 hours before 12-hour 0.6% EtOH (Pre-VitC)
[7] = 100 μM VitC concomitantly with 12-hour 0.6% EtOH

## OO [H2O2, hydrogen peroxide]
[1]; animal caps treated with 100 M of H2O2 instead of alcohol
  expression of Pax6, Otx2, Sox2, Sox3, and NCAM: reduced the expression

## O=C1O[C@H]([C@@H](O)CO)C(O)=C1O [VitC, ascorbic acid]
[1]; ethanol treated embryos, vitamin C pretreatment
  expression of NCAM and Pax6 (RT-PCR): restored significantly
[2]; vitamin C 2 hours before addition of alcohol
  forebrain areas, histology at stage 45: significant restoration of the forebrain areas
[2]; vitamin C concomitantly with alcohol
  width of the canal in diencephalon areas: could not narrow down the canal
[3]
  ethanol-induced hydrogen peroxide level: suppressed
Xenopus laevis embryos; [5]
  Alive: 14
  dead: 1
  Body length: 9.60 ± 013^b mm
  Eye distance: 1.82 ± 004^b mm
Xenopus laevis embryos; [6]
  Alive: 14
  dead: 1
  Body length: 11.88 ± 006^a mm
  Eye distance: 2.13 ± 002^a mm
Xenopus laevis embryos; [7]
  Alive: 14
  dead: 1
  Body length: 10.19 ± 014^a mm
  Eye distance: 1.88 ± 003^a,b mm
Xenopus laevis embryos; VitC alone, 100 μM, no ethanol
  dead: 1
Xenopus laevis embryos; pretreating embryos with 100 μM vitamin C
  severity of alcohol-induced microencephaly and growth retardation: significantly reduced the severity

## Nc1nc2ncc(CNc3ccc(C(=O)N[C@@H](CCC(=O)O)C(=O)O)cc3)nc2c(=O)[nH]1 [folic acid]
rats
  amount of ethanol-mediated oxidative stress: mitigated

## CC1=C(/C=C/C(C)=C/C=C/C(C)=C/C=C/C=C(C)/C=C/C=C(C)/C=C/C2=C(C)CCCC2(C)C)C(C)(C)CCC1 [β-carotene]
[4]
  protection of embryonic hippocampal cultures: protected

## Vitamin E
[4]
  protection of embryonic hippocampal cultures: protected
